What was measured:
[1] = system: TNF-α/IFN-γ-exposed hPD-MSCs; experiment: Reactive oxygen species (ROS) assay, H2DCFDA; format: cell-based, human; conditions: TNF-α/IFN-γ-exposed MSC control (TI) treated with compound; FIG. 3F
Procedure: To investigate ROS levels, a total of 5×10^3 hPD-MSCs were seeded into each well of a 96-well black-microplate (SPL, 33196) and cultured for 24 hours, and then the cells were washed and cultured in a pre-warmed Hanks' balanced salt solution (14025092, ThermoFisher) containing 50 μM H2DCFDA (D399; ThermoFisher) for 30 minutes. Fluorescence intensity at a wavelength of 555 nm was measured at a wavelength of 488 nm using a Multi-Mode MicroPlate Reader (FlexStation 3, Molecular Devices, Silicon Valley, CA, USA), and the results are shown in FIG. 3F.

NANOG = experiment: Real-time qPCR, NANOG stemness gene expression; format: cell-based, human; conditions: TNF-α/IFN-γ-exposed MSCs (TI) treated with compound; FIG. 1B
Procedure: (§1) Human placenta-derived mesenchymal stem cells (hPD-MSCs) were harvested from inside the placental chorion, and the harvested cells were cultured in an alpha-Minimum Essential medium (Cytiva, Marlborough, MA, USA) supplemented with 10% fetal bovine serum (ThermoFisher, Waltham, MA, USA), 1% penicillin/streptomycin (ThermoFisher, Waltham, MA, USA), 25 ng/mL human fibroblast growth factor-4 (Peprotech, Rocky Hill, NJ, USA) and 1 μg/mL heparin (Merck, San Francisco, CA, USA). A total of 1×10^5 hPD-MSCs were seeded in a cell culture dish (90×20 mm) (SPL, Pocheon, Korea) and cultured at 37° C. in an incubator containing 5% CO2. The cells were subcultured every 4 days until reaching 70 to 80% confluency. Expanded cells were obtained at passage 12 or 13. During subculture, viable cells were stained with Trypan blue (Merck) and the number of cells was manually counted.
(§2) In a passage for sample extraction, hPD-MSCs were cultured for 24 hours in a medium with or without an example compound (5-[(1,1-dioxido-4-thiomorpholinyl)methyl]-2-phenyl-N-(tetrahydro-2H-pyran-4-yl)-1H-indole-7-amine) while including 2.5 ng/mL TNF-α (Peprotech) and 25 ng/mL IFN-γ (Peprotech).
In the present experiment, the expression levels of stem cell differentiation-related genes and cell cycle-related genes were analyzed by qPCR. […]

mTOR = experiment: Western blotting, mTOR phosphorylation ratio (mTORC1 pathway); format: cell-based, human; conditions: vs MSC control exposed to TNF-α/IFN-γ; FIG. 4D
Procedure: (§3) Further, the phosphorylation-induced activation ratios of AKT/mTOR/S6K, which represents the mTORC1 pathway, was analyzed. mTORC1 activation is known to not only induce senescence-associated phenotypes in MSCs, but also impair quiescence and sternness. In the present experiment, the phosphorylation ratio was confirmed using western blotting analysis as described below.
(§4) Proteins were extracted with a Pro-Prep protein lysis buffer (iNtRON) and quantified by a protein quantitative analysis kit (BIOMAX, Seoul, Korea). Samples were then heated in 4× Laemmli sample buffer (Bio-Rad) containing 2-mercaptoethanol (Bio-Rad), and proteins were loaded onto an 8% sodium dodecyl sulfate polyacrylamide gel and electrophoresed at 60 V for 30 minutes, and then electrophoresed at 120 V for 1 hour. […]
(§5) Immunoreactive bands were detected using an enhanced chemiluminescence detection reagent (Clarity™ Western blot substrate, Bio-Rad) and images of the bands were obtained using ImageSaver Version 6 (ATTO, Tokyo, Japan). The intensity of each band was analyzed with CA4 analyzer software (ATTO), and each experiment was performed in triplicate under the same conditions. […]

IL-6 = experiment: Real-time qPCR, SASP factor IL-6; format: cell-based, human; conditions: vs MSCs exposed to TNF-α/IFN-γ; FIG. 4B
Procedure: (§6) Real-time qPCR was performed using an Easy-Spin Total RNA Kit (iNtRON, Seongnam, Korea) to extract total RNA from hPD-MSCs and RNA concentration was adjusted to 100 ng/μL using a microplate spectrophotometer (Epoch™ Microplate Spectrophotometer, BioTek, Winooski, VT, USA), and the extracted RNA was reverse transcribed into cDNA using RT PreMix (dT20) (Bioneer, Seoul, Korea) using a SimpliAmp Thermal Cycler (Life Technologies, Carlsbad, CA, USA). Real-time qPCR was performed using a real-time PCR machine (CFX Connect, Bio-Rad, Hercules, CA, USA), SYBR Green Supermix (Bio-Rad) and the relevant primers, and all experiments were performed in triplicate for statistical analysis.
(§7) In the present experiment, the expression of IL-1β, IL-6, and monocyte chemotactic protein-1 (MCP-1), which are SASP-associated factors of the untreated MSC control, the TNF-α/IFN-γ-exposed MSC control (TI), and the experimental group treated with the example compound in the TNF-α/IFN-γ-exposed MSC control was analyzed by real-time qPCR. As the real-time qPCR analysis method, the same method described in Experimental Example 1-2 above was used, and the results are shown in FIGS. 4A to 4C.

[2] = system: monocyte chemotactic protein-1 (MCP-1); experiment: Real-time qPCR, SASP factor MCP-1; format: cell-based, human; conditions: vs MSCs exposed to TNF-α/IFN-γ; FIG. 4C
Procedure: as §6, §7

AKT = experiment: Western blotting, AKT phosphorylation ratio (mTORC1 pathway); format: cell-based, human; conditions: vs MSC control exposed to TNF-α/IFN-γ; FIG. 4D
Procedure: as §3, §4, §5

[3] = system: TNF-α/IFN-γ-exposed hPD-MSCs; experiment: Cell viability at each concentration of the example compound; format: cell-based; conditions: TNF-α/IFN-γ exposure, different concentrations of compound; FIG. 1D
Procedure: as §1, §2
Meanwhile, upon exposure to TNF-α/IFN-γ and treatment with the example compound, cell viability was evaluated, and the results are shown in FIG. 1D.

O=S1(=O)CCN(Cc2cc(NC3CCOCC3)c3[nH]c(-c4ccccc4)cc3c2)CC1 [example compound, 5-[(1,1-dioxido-4-thiomorpholinyl)methyl]-2-phenyl-N-(tetrahydro-2H-pyran-4-yl)-1H-indole-7-amine]
ROS value [1]: reduced to the level of the untreated MSC control
NANOG expression (relative to untreated MSC control) (NANOG): significantly increased to a level similar to that of the untreated MSC control
reduction of mTOR phosphorylation ratio (pmTOR/mTOR) (mTOR): ~30%
IL-6 expression level (IL-6): decreased
decrease of MCP-1 expression [2]: ~15%
reduction of AKT phosphorylation ratio (pAKT/AKT) (AKT): about 25%
cell viability [3]: high
